According to publication PMC3158675, “Effective inhibitors of the essential kinase PknB and their potential as anti-mycobacterial agents” (Tuberculosis (Edinburgh, Scotland), 2011):

System: M. tuberculosis ompA mutant
Type: cell-based

SMILES | Sensitivity of M. tuberculosis ompA mutant compared to wild type
CC[C@H]1OC(=O)[C@H](C)[C@@H](O[C@H]2C[C@@](C)(OC)[C@@H](O)[C@H](C)O2)[C@H](C)[C@@H](O[C@@H]2O[C@H](C)C[C@H](N(C)C)[C@H]2O)[C@](C)(O)C[C@@H](C)C(=O)[C@H](C)[C@@H](O)[C@]1(C)O [erythromycin] | slightly increased resistance
CN[C@H](CC(C)C)C(=O)N[C@H]1C(=O)N[C@@H](CC(N)=O)C(=O)N[C@H]2C(=O)N[C@H]3C(=O)N[C@H](C(=O)N[C@H](C(=O)O)c4cc(O)cc(O)c4-c4cc3ccc4O)[C@H](O)c3ccc(c(Cl)c3)Oc3cc2cc(c3O[C@@H]2O[C@H](CO)[C@@H](O)[C@H](O)[C@H]2O[C@H]2C[C@](C)(N)[C@H](O)[C@H](C)O2)Oc2ccc(cc2Cl)[C@H]1O [vancomycin] | slightly increased resistance
